Data published in the CheMixHub ionic liquid set.
Several values for one entry are separate records, joined by “and”; a condition that tells them apart may be missing. Identical values can stand only once.

Assay: xn = mol fraction of the nth substance listed

CC(=O)[O-].CCCC[NH2+]CCO + CCCC[n+]1ccn(C)c1.COP(=O)([O-])OC
viscosity [mPa·s], 101 kPa
Conditions | x1 = 0.1014 | x1 = 0.172 | x1 = 0.2979 | x1 = 0.4067 | x1 = 0.4989 | x1 = 0.6316 | x1 = 0.7065 | x1 = 0.8011 | x1 = 0.8913 | x1 = 1
278.15 K | – | – | – | – | – | – | – | – | – | 6138
283.15 K | 1725 | 1555 | 1328 | 1208 | 1161 | 1288 | 1457 | 1793 | 2360 | 3634
288.15 K | 1103 | 997 | 855 | 781 | 751 | 825 | 930 | 1135 | 1475 | 2230
293.15 K | 730 | 662 | 571 | 522 | 503 | 548 | 614 | 741 | 952 | 1412
298.15 K | 499 | 454 | 392 | 360 | 346 | 375 | 417 | 499 | 633 | 921
303.15 K | 351 | 319.8 | 277.3 | 254.3 | 244.8 | 263.1 | 290.6 | 344 | 431 | 617
308.15 K | 253.2 | 231.1 | 200.9 | 184.2 | 177.2 | 189.1 | 207.4 | 243.2 | 301 | 423
313.15 K | 186.8 | 170.8 | 148.7 | 136.5 | 131.1 | 138.9 | 151.3 | 175.7 | 214.8 | 297
318.15 K | 140.7 | 128.9 | 112.4 | 103.1 | 98.9 | 104 | 112.6 | 129.5 | 156.5 | 212.7
323.15 K | 108.1 | 99.1 | 86.6 | 79.4 | 76 | 79.4 | 85.4 | 97.2 | 116.1 | 155.3
328.15 K | 84.5 | 77.6 | 67.8 | 62.2 | 59.4 | 61.6 | 65.9 | 74.2 | 87.7 | 115.3
333.15 K | 67.08 | 61.68 | 53.98 | 49.43 | 47.16 | 48.5 | 51.57 | 57.6 | 67.3 | 87
338.15 K | 54.05 | 49.76 | 43.58 | 39.88 | 37.96 | 38.75 | 40.98 | 45.33 | 52.4 | 66.7
343.15 K | 44.14 | 40.69 | 35.65 | 32.6 | 30.96 | 31.37 | 33 | 36.18 | 41.36 | 51.9
348.15 K | 36.5 | 33.69 | 29.51 | 26.96 | 25.56 | 25.71 | 26.9 | 29.24 | 33.08 | 40.87
353.15 K | 30.53 | 28.22 | 24.71 | 22.56 | 21.33 | 21.31 | 22.18 | 23.9 | 26.78 | 32.6
358.15 K | 25.8 | 23.88 | 20.91 | 19.07 | 17.99 | 17.86 | 18.48 | 19.75 | 21.91 | 26.29
363.15 K | 22.02 | 20.4 | 17.86 | 16.27 | 15.31 | 15.1 | 15.55 | 16.48 | 18.11 | 21.43
368.15 K | 18.97 | 17.58 | 15.4 | 14.01 | 13.15 | 12.89 | 13.21 | 13.89 | 15.12 | 17.63
373.15 K | 16.47 | 15.28 | 13.38 | 12.15 | 11.38 | 11.09 | 11.3 | 11.8 | 12.72 | 14.64

CS(C)=O + CCCC[n+]1ccn(C)c1.F[B-](F)(F)F
100 kPa, x2 = 0
Conditions | electrical conductivity [S/m] | viscosity
298.15 K | 0.042 | 1.99 mPa·s and 2.012 mPa·s
303.15 K | – | 1.8 mPa·s
308.15 K | – | 1.65 mPa·s
313.15 K | – | 1.54 mPa·s

CC(=O)[O-].CCCC[NH2+]CCO + CCCC[n+]1ccn(C)c1.O=S(=O)([N-]S(=O)(=O)C(F)(F)F)C(F)(F)F
101 kPa
Conditions | viscosity [mPa·s]
283.15 K, x1 = 0.1012 | 127.4
283.15 K, x1 = 0.6987 | 1145
283.15 K, x1 = 0.8008 | 1850
283.15 K, x1 = 1 | 3634
288.15 K, x1 = 0.3002 | 164.2
288.15 K, x1 = 0.8008 | 1170
288.15 K, x1 = 0.901 | 1735
298.15 K, x1 = 0.2257 | 78.02
298.15 K, x1 = 0.8008 | 515
298.15 K, x1 = 0.901 | 731
298.15 K, x1 = 1 | 921
303.15 K, x1 = 0.4998 | 126.1
303.15 K, x1 = 0.8008 | 356
308.15 K, x1 = 0.3002 | 56.19
308.15 K, x1 = 1 | 423
313.15 K, x1 = 0.4998 | 73.4
313.15 K, x1 = 0.6987 | 130.9
313.15 K, x1 = 0.8008 | 182
313.15 K, x1 = 0.901 | 243.8
313.15 K, x1 = 1 | 297
318.15 K, x1 = 0.2257 | 32.2
318.15 K, x1 = 0.6987 | 98.5
318.15 K, x1 = 0.901 | 176.6
323.15 K, x1 = 0.6987 | 75.5
328.15 K, x1 = 0.2257 | 22.42
328.15 K, x1 = 0.6018 | 46.47
328.15 K, x1 = 0.901 | 98
338.15 K, x1 = 0.6987 | 37.11
343.15 K, x1 = 0.2257 | 14.05
343.15 K, x1 = 0.4998 | 20.65
343.15 K, x1 = 0.901 | 45.6
343.15 K, x1 = 1 | 51.9
348.15 K, x1 = 0.423 | 15.42
353.15 K, x1 = 0.901 | 29.26
353.15 K, x1 = 1 | 32.6
358.15 K, x1 = 0.3002 | 9.99
358.15 K, x1 = 0.423 | 11.46
358.15 K, x1 = 0.4998 | 12.68
363.15 K, x1 = 0.423 | 9.98
363.15 K, x1 = 1 | 21.43
368.15 K, x1 = 0.8008 | 14.29
368.15 K, x1 = 1 | 17.63
373.15 K, x1 = 0.3002 | 6.99
373.15 K, x1 = 0.423 | 7.73
373.15 K, x1 = 0.4998 | 8.35
373.15 K, x1 = 1 | 14.64

CCCCCCCCCCCCCC[P+](CCCCCC)(CCCCCC)CCCCCC.[c-]1c[nH]nn1 + CCCC[n+]1ccn(C)c1.O=S(=O)([N-]S(=O)(=O)C(F)(F)F)C(F)(F)F
100 kPa
Conditions | viscosity [mPa·s]
278.15 K, x2 = 0.2 | 2422
283.15 K, x2 = 0.1 | 1490
283.15 K, x2 = 0.722 | 481
293.15 K, x2 = 0.301 | 663
298.15 K, x2 = 0.1 | 486
298.15 K, x2 = 0.388 | 428
298.15 K, x2 = 0.9 | 77
303.15 K, x2 = 0.1 | 353
303.15 K, x2 = 0.301 | 339
308.15 K, x2 = 0.2 | 273
313.15 K, x2 = 0.2 | 205
313.15 K, x2 = 0.388 | 174
318.15 K, x2 = 0.2 | 158
318.15 K, x2 = 0.301 | 147
318.15 K, x2 = 0.8 | 50
323.15 K, x2 = 0.301 | 115

CS(C)=O + CCCC[n+]1ccn(C)c1.O=S(=O)([N-]S(=O)(=O)C(F)(F)F)C(F)(F)F
100 kPa
Conditions | electrical conductivity [S/m] | viscosity [mPa·s]
294.5 K, x2 = 0.02028 | 0.45 | –
298.15 K, x1 = 0.5903 | – | 13.22
303.15 K, x1 = 0.2885 | – | 23.78
303.15 K, x1 = 0.5026 | – | 13.9
308.15 K, x1 = 0.5903 | – | 9.52
308.15 K, x1 = 1 | – | 1.67
313.15 K, x1 = 0.0951 | – | 23.09
313.15 K, x1 = 0.2074 | – | 19.57
313.15 K, x1 = 0.5903 | – | 8.39
313.15 K, x1 = 1 | – | 1.53
323.15 K, x1 = 0.9012 | – | 2.15

N#CCCCCC#N + CCCC[n+]1ccn(C)c1.O=S(=O)([N-]S(=O)(=O)C(F)(F)F)C(F)(F)F
Conditions | electrical conductivity [S/m]
294.5 K, 100 kPa, x2 = 0.02785 | 0.29

CS(C)=O + CCCC[n+]1ccn(C)c1.O=S(=O)([O-])C(F)(F)F
100 kPa, x2 = 0
Conditions | viscosity [mPa·s]
298.15 K | 2.03
303.15 K | 1.84
308.15 K | 1.67
313.15 K | 1.53
318.15 K | 1.41
323.15 K | 1.3
